Measurements as given in ChEMBL document CHEMBL3046079, “Synthesis, herbicidal activity, and mode of action of IR 5790” (J Agric Food Chem, 2001).
Activity calls are given as the source filed them. The rule behind the calls is not given here.

Assays:
[1] = molecular target: T1, Putative protoporphyrinogen IX oxidase (Cucumis sativus) (UniProt C6L817); assay: Inhibition of protoporphyrin oxidase in Cucumis sativus (cucumber) cotyledon disc assessed as increase in extraplastidic protoporphyrin 9 accumulation at 10 uM incubated in dim light for 2 hr by HPLC analysis relative to control
T1 sequence (whole entry): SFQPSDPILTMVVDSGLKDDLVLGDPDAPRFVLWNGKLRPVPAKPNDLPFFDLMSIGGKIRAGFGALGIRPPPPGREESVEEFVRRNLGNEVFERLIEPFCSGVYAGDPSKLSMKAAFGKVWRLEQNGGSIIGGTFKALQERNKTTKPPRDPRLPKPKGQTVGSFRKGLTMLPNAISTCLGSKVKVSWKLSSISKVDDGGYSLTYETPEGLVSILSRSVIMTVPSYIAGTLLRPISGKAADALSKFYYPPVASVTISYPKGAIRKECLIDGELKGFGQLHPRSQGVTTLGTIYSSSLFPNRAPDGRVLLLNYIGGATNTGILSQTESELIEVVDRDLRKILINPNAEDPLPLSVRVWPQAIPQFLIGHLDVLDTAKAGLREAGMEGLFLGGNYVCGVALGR

[2] = molecular target: T1, Putative protoporphyrinogen IX oxidase (Cucumis sativus); assay: Inhibition of protoporphyrin oxidase in Cucumis sativus (cucumber) cotyledon disc assessed as light-dependent membrane damage at 10 uM incubated for 20 hr in dark followed by 8 hr in presence of light measured as electrolyte leakage relative to control
[3] = molecular target: T1, Putative protoporphyrinogen IX oxidase (Cucumis sativus); assay: Inhibition of protoporphyrin oxidase in Cucumis sativus (cucumber) cotyledon disc assessed as light-dependent membrane damage at 1 uM incubated for 20 hr in dark followed by 8 hr in presence of light measured as electrolyte leakage relative to control
Papaver rhoeas [4] = assay: Pre-emergence herbicidal activity against Papaver rhoeas assessed as injury at 50 g/ha applied at 24 hr post-sowing measured after 28 days relative to control; assay type: functional
Matricaria chamomilla [5] = assay: Pre-emergence herbicidal activity against Matricaria chamomilla assessed as injury at 50 g/ha applied at 24 hr post-sowing measured after 28 days relative to control; assay type: functional
Triticum aestivum [6] = assay: Phytotoxicity against Triticum aestivum (wheat) assessed as injury at 150 g/ha applied as pre-emergent treatment at 24 hr post-sowing measured after 28 days relative to control; assay type: organism-based; settings: in vivo, other, 672 h
Zea mays = assay: Phytotoxicity against Zea mays (maize) assessed as injury at 150 g/ha applied as pre-emergent treatment at 24 hr post-sowing measured after 28 days relative to control; assay type: organism-based; settings: in vivo, other, 672 h
Veronica persica [7] = assay: Pre-emergence herbicidal activity against Veronica persica assessed as injury at 50 g/ha applied at 24 hr post-sowing measured after 28 days relative to control; assay type: functional
Capsella bursa-pastoris = assay: Post-emergence herbicidal activity against Capsella bursa-pastoris assessed as injury at 150 g/ha applied at 15 days post-sowing measured after 15 days relative to control; assay type: functional
Panicum dichotomiflorum [8] = assay: Post-emergence herbicidal activity against Panicum dichotomiflorum assessed as injury at 150 g/ha applied at 15 days post-sowing measured after 15 days relative to control; assay type: functional
Veronica persica [9] = assay: Post-emergence herbicidal activity against Veronica persica assessed as injury at 150 g/ha applied at 15 days post-sowing measured after 15 days relative to control; assay type: functional
Geranium dissectum [10] = assay: Post-emergence herbicidal activity against Geranium dissectum assessed as injury at 150 g/ha applied at 15 days post-sowing measured after 15 days relative to control; assay type: functional
Triticum aestivum [11] = assay: Phytotoxicity against Triticum aestivum (wheat) assessed as injury at 5 g/ha applied as post-emergent treatment at 15 days post-sowing measured after 15 days relative to control; assay type: organism-based; settings: in vivo, other, 360 h
Panicum dichotomiflorum [12] = assay: Post-emergence herbicidal activity against Panicum dichotomiflorum assessed as injury at 15 g/ha applied at 15 days post-sowing measured after 15 days relative to control; assay type: functional
Echinochloa crus-galli = assay: Post-emergence herbicidal activity against Echinochloa crus-galli (barnyard grass) assessed as injury at 15 g/ha applied at 15 days post-sowing measured after 15 days relative to control; assay type: functional
Avena fatua [13] = assay: Post-emergence herbicidal activity against Avena fatua assessed as injury at 15 g/ha applied at 15 days post-sowing measured after 15 days relative to control; assay type: functional
Stellaria media = assay: Post-emergence herbicidal activity against Stellaria media assessed as injury at 15 g/ha applied at 15 days post-sowing measured after 15 days relative to control; assay type: functional
Ipomoea purpurea = assay: Post-emergence herbicidal activity against Ipomoea purpurea (common morning-glory) assessed as injury at 15 g/ha applied at 15 days post-sowing measured after 15 days relative to control; assay type: functional
Xanthium strumarium = assay: Pre-emergence herbicidal activity against Xanthium strumarium (cocklebur) assessed as injury at 150 g/ha applied at 24 hr post-sowing measured after 28 days relative to control; assay type: functional
Solanum nigrum = assay: Pre-emergence herbicidal activity against Solanum nigrum (black nightshade) assessed as injury at 150 g/ha applied at 24 hr post-sowing measured after 28 days relative to control; assay type: functional
Papaver rhoeas [14] = assay: Pre-emergence herbicidal activity against Papaver rhoeas assessed as injury at 150 g/ha applied at 24 hr post-sowing measured after 28 days relative to control; assay type: functional
Geranium dissectum [15] = assay: Pre-emergence herbicidal activity against Geranium dissectum assessed as injury at 150 g/ha applied at 24 hr post-sowing measured after 28 days relative to control; assay type: functional
Calystegia sepium [16] = assay: Pre-emergence herbicidal activity against Calystegia sepium assessed as injury at 150 g/ha applied at 24 hr post-sowing measured after 28 days relative to control; assay type: functional
Chenopodium album = assay: Pre-emergence herbicidal activity against Chenopodium album assessed as injury at 150 g/ha applied at 24 hr post-sowing measured after 28 days relative to control; assay type: functional
Ammi majus = assay: Post-emergence herbicidal activity against Amni maius assessed as injury at 15 g/ha applied at 15 days post-sowing measured after 15 days relative to control; assay type: functional
Abutilon theophrasti [17] = assay: Post-emergence herbicidal activity against Abutilon theophrasti (velvetleaf) assessed as injury at 15 g/ha applied at 15 days post-sowing measured after 15 days relative to control; assay type: functional
Amaranthus retroflexus = assay: Pre-emergence herbicidal activity against Amaranthus retroflexus assessed as injury at 150 g/ha applied at 24 hr post-sowing measured after 28 days relative to control; assay type: functional
Abutilon theophrasti [18] = assay: Pre-emergence herbicidal activity against Abutilon theophrasti (velvetleaf) assessed as injury at 150 g/ha applied at 24 hr post-sowing measured after 28 days relative to control; assay type: functional
Avena fatua [19] = assay: Post-emergence herbicidal activity against Avena fatua assessed as injury at 50 g/ha applied at 15 days post-sowing measured after 15 days relative to control; assay type: functional
Portulaca oleracea = assay: Post-emergence herbicidal activity against Portulaca oleracea assessed as injury at 50 g/ha applied at 15 days post-sowing measured after 15 days relative to control; assay type: functional
Matricaria chamomilla [20] = assay: Post-emergence herbicidal activity against Matricaria chamomilla assessed as injury at 50 g/ha applied at 15 days post-sowing measured after 15 days relative to control; assay type: functional
Calystegia sepium [21] = assay: Post-emergence herbicidal activity against Calystegia sepium assessed as injury at 50 g/ha applied at 15 days post-sowing measured after 15 days relative to control; assay type: functional

For `C#CCOc1cc(-n2nc(C(C)(C)C)sc2=O)c(Cl)cc1Cl`, the fold change (FC) [1] was 234, the inhibition [2] was “Active” and the inhibition [3] was “inactive”. The Activity (Papaver rhoeas [4]) was 70%, the Activity (Matricaria chamomilla [5]) was 0% and the Activity (Triticum aestivum [6]) was 0%. It also gave an Activity (Zea mays) of 0%, an Activity (Veronica persica [7]) of 30% and an Activity (Capsella bursa-pastoris) of 50%. For the same compound, the Activity (Panicum dichotomiflorum [8]) was 90%, the Activity (Veronica persica [9]) was 50% and the Activity (Geranium dissectum [10]) was 50%. For the same compound, the Activity (Triticum aestivum [11]) was 0%, the Activity (Panicum dichotomiflorum [12]) was 0% and the Activity (Echinochloa crus-galli) was 0%. It also gave an Activity (Avena fatua [13]) of 0%, an Activity (Stellaria media) of 0% and an Activity (Ipomoea purpurea) of 90%. The Activity (Xanthium strumarium) was 0%, the Activity (Solanum nigrum) was 70% and the Activity (Papaver rhoeas [14]) was 90%. The Activity (Geranium dissectum [15]) was 0%, the Activity (Calystegia sepium [16]) was 0% and the Activity (Chenopodium album) was 90%. The Activity (Ammi majus) was 0%, the Activity (Abutilon theophrasti [17]) was 30% and the Activity (Amaranthus retroflexus) was 90%. For the same compound, the Activity (Abutilon theophrasti [18]) was 0%, the Activity (Avena fatua [19]) was 0% and the Activity (Portulaca oleracea) was 90%. It also gave an Activity (Matricaria chamomilla [20]) of 0% and an Activity (Calystegia sepium [21]) of 70%.
